Measurements reported in article PMC8699718, “A structurally conserved site in AUP1 binds the E2 enzyme UBE2G2 and is essential for ER-associated degradation” (PLoS Biology, 2021).

What was measured:
Assay type in all cases: cell-based, human
UBE2G2 = UBE2G2 levels in HT1080 cells loaded with oleic acid; settings: HT1080, 200 μM oleic acid
Procedure: Plasmid transfections were carried out using PolyFect (Qiagen, Germantown, MD, USA) or JetPrime (Polyplus, New York, NY, USA) reagents. For CHX chase experiments, approximately 24 hours following plasmid transfection, cells were treated with 50 μg/mL CHX in complete media for the indicated times. For lipid droplet experiments, cells were treated with 200 μM oleic acid (Millipore Sigma) for 16 hours, beginning 24 hours following transfection. For assessment of GFP^u stability, cells were cultured in DMEM supplemented with 10% FetalPlex animal serum complex (Gemini Bio, West Sacramento, CA, USA) and treated with 50 μM emetine for the indicated times to inhibit protein synthesis. […] Clarified lysates or immunoprecipitates were denatured by heating in NuPAGE LDS Sample Buffer with β-mercaptoethanol at 70°C for 10 minutes, resolved on Bis-Tris polyacrylamide gels in NuPAGE MES or MOPS SDS running buffer and analyzed by western blotting. Proteins were detected using Clarity Western ECL (Bio-Rad, Hercules, CA, USA), Radiance Q (Azure Biosystems, Dublin, CA, USA), or SuperSignal Femto West (Thermo Scientific, Waltham, MA, USA) ECL reagents and a c280 Imager (Azure Biosystems) or autoradiography. […]

AUP1:UBE2G2 = experiment: co-IP of AUP1 with transfected MYC-UBE2G2, +/- oleic acid; settings: WT HT1080, oleic acid loading, three experiments, reviewer response
Excerpt: (§1) page 10: Major points: The phenotypes they show are strong but it would be nice to see the initial observations repeated in other cell lines. […] We have now generated HEK293 AUP1 KO cell lines and have recapitulated our initial results on domain requirements for both NHK and RI332 (Fig 1G-H, Fig 2C-D). We also provide data that E2 loss similarly occurs in these HEK293 AUP1 KO cells and that E2 stability can be restored by GFP-G2BR (Fig S5D and S5E). To extend our observations beyond HT1080 and HEK293, we also generated and examined M17 AUP1 KO cells, and observed a similar destabilization of UBE2G2 with loss of AUP1. […] Although, it is possible that the stability of UBE2G2 is due to the level of AUP1 in these cells, it is not clear whether the G2BR of AUP1 is always available for UBE2G2 binding and whether AUP1 acts as a sink for UBE2G2 when associated with lipid droplets. […] They can then compare the 'pulldown levels' of AUP1 and gp78 to the amounts of protein in the reference binding domains in (Figure 6). […] Alternatively, NHK degradation may be reduced under increasing Oleic acid levels but UBE2G2 binding is not affected. […] We have now loaded cells with oleic acid and assessed E2 levels and NHK degradation (Fig S5A and Fig S5B). […]

gp78:UBE2G2 = experiment: co-IP of gp78 with transfected MYC-UBE2G2, +/- oleic acid; settings: WT HT1080, oleic acid loading, three experiments, reviewer response
Excerpt: as §1

CCCCCCCC/C=C\CCCCCCCC(=O)O [oleic acid]
effect on UBE2G2 levels (UBE2G2): affected neither UBE2G2 levels
decrease of AUP1 co-association with MYC-UBE2G2 (AUP1:UBE2G2): ~ 27%
decrease of gp78 co-association with MYC-UBE2G2 (gp78:UBE2G2): ~ 20%
